Measurements from patent US20130035232A1, “INDUCTION AND STABILIZATION OF ENZYMATIC ACTIVITY IN MICROORGANISMS” (GEORGIA STATE UNIVERSITY RESEARCH FOUNDATION, INC., priority 2010, published 2013).

Columns and labels:
nitrile hydratase = assay: Nitrile hydratase induction by inducers (Example 1); format: cell-based, Rhodococcus sp., strain DAP 96253; conditions: inducer 1000 ppm
Experimental: (§1) The induction of nitrile hydratase activity and amidase activity in Rhodococcus sp., strain DAP 96253, was evaluated using multiple types of inducers (1000 ppm). Three different samples were cultured in YEMEA medium containing 10 ppm cobalt and 7.5 g/L urea and supplemented with acrylonitrile, asparagine, or glutamine. The specific nitrile hydratase activity and the specific amidase activity in each sample was evaluated, and the results are provided below in Table 3, with activities provided in units/mg cdw (cell dry weight). One unit of nitrile hydratase activity relates to the ability to convert 1 μmol of acrylonitrile to its corresponding amide per minute, per milligram of cells (dry weight) at a pH of 7.0 and a temperature of 30° C. One unit of amidase activity relates to the ability to convert 1 μmol of acrylamide to its corresponding acid per minute, per milligram of cells (dry weight) pH of 7.0 and a temperature of 30° C.

amidase [1] = assay: Amidase induction by inducers (Example 1); format: cell-based, Rhodococcus sp., strain DAP 96253
Experimental: as §1

[2] = tested on: Brevibacterium ketoglutaricum ATCC 21533; assay: Growth on supplemented YEMEA (visual grade); format: cell-based; parameters: key: (−) meaning no detectable growth; (+/−) meaning scant growth; (+) meaning little growth; (++) meaning good growth; (+++) meaning very good growth; (++++) meaning excellent growth; conditions: 30 °C, 7.5 g/L urea, 10 ppm cobalt, supplement 3.8 mM
Experimental: (§2) The relative growth of various nitrile hydratase producing microorganisms was evaluated. All strains were grown on YEMEA medium containing 7.5 g/L of urea and 10 ppm cobalt (provided as cobalt chloride) supplemented with asparagine (ASN), glutamine (GLN), or both asparagine and glutamine. The asparagine and glutamine were added at a concentration of 3.8 mM. Growth temperature was in the range of 26° C. to 30° C. Growth was evaluated by visual inspection and graded on the following scale: (−) meaning no detectable growth; (+/−) meaning scant growth; (+) meaning little growth; (++) meaning good growth; (+++) meaning very good growth; and (++++) meaning excellent growth.

[3] = tested on: Pseudomonas chloroaphis ATCC 13985; assay: Growth on supplemented YEMEA (visual grade); format: cell-based; parameters: key: (−) meaning no detectable growth; (+/−) meaning scant growth; (+) meaning little growth; (++) meaning good growth; (+++) meaning very good growth; (++++) meaning excellent growth; conditions: 26 °C, 7.5 g/L urea, 10 ppm cobalt, supplement 3.8 mM
Experimental: as §2

[4] = tested on: Pseudomonas chloroaphis ATCC 43051; assay: Growth on supplemented YEMEA (visual grade); format: cell-based; parameters: key: (−) meaning no detectable growth; (+/−) meaning scant growth; (+) meaning little growth; (++) meaning good growth; (+++) meaning very good growth; (++++) meaning excellent growth; conditions: 30 °C, 7.5 g/L urea, 10 ppm cobalt, supplement 3.8 mM
Experimental: as §2

[5] = tested on: Rhodococcus erythropolis ATCC 47072; assay: Growth on supplemented YEMEA (visual grade); format: cell-based; parameters: key: (−) meaning no detectable growth; (+/−) meaning scant growth; (+) meaning little growth; (++) meaning good growth; (+++) meaning very good growth; (++++) meaning excellent growth; conditions: 26 °C, 7.5 g/L urea, 10 ppm cobalt, supplement 3.8 mM
Experimental: as §2

[6] = tested on: Rhodococcus rhodochrous DAP 96622 ATCC 55898; assay: Growth on supplemented YEMEA (visual grade); format: cell-based; parameters: key: (−) meaning no detectable growth; (+/−) meaning scant growth; (+) meaning little growth; (++) meaning good growth; (+++) meaning very good growth; (++++) meaning excellent growth; conditions: 26 °C, 7.5 g/L urea, 10 ppm cobalt, supplement 3.8 mM
Experimental: as §2

[7] = tested on: Rhodococcus sp. DAP 96253 ATCC 55899; assay: Growth on supplemented YEMEA (visual grade); format: cell-based; parameters: key: (−) meaning no detectable growth; (+/−) meaning scant growth; (+) meaning little growth; (++) meaning good growth; (+++) meaning very good growth; (++++) meaning excellent growth; conditions: 30 °C, 7.5 g/L urea, 10 ppm cobalt, supplement 3.8 mM
Experimental: as §2

amidase [8] = assay: Amidase production on supplemented medium; format: cell-based; conditions: YEMEA, urea, cobalt, supplement 3.8 mM
Experimental: (§3) The induction of nitrile hydratase production and amidase production in various nitrile hydratase producing microorganisms was evaluated. All strains were grown on YEMEA medium containing 7.5 g/L of urea and 10 ppm cobalt (provided as cobalt chloride) supplemented with asparagine (ASN), glutamine (GLN), or both asparagine and glutamine. The asparagine and glutamine were added at a concentration of 3.8 mM. As a comparative, enzyme production with no supplementation was also tested. Growth temperature was in the range of 26° C. to 30° C.

asparaginase I [9] = assay: Asparaginase I production on supplemented medium; format: cell-based; conditions: YEMEA, 7.5 g/L urea, 10 ppm cobalt
Experimental: as §3, with “asparaginase I” for “nitrile hydratase production and amidase”, “production” for “production with no supplementation”, “evaluated with supplementation with acrylonitrile (AN), acrylamide (AMD) or acrylonitrile and acrylamide.” for “tested.”

asparaginase I [10] = assay: Effect of inducer and media composition on asparaginase I production; format: cell-based, Rhodococcus sp. DAP 96253; conditions: Rhodococcus sp. DAP 96253, inducer 1000 ppm
Experimental: Testing was performed to evaluate the effect on asparaginase I activity based upon the inducer used. In particular, testing was performed using asparagine, glutamine, succinonitrile, and isovaleronitrile as inducers (all added at 1000 ppm each).

[11] = Brevibacterium ketoglutaricum ATCC 21533, 30 °C
[12] = Pseudomonas chloroaphis ATCC 13985, 26 °C
[13] = Pseudomonas chloroaphis ATCC 43051, 30 °C
[14] = Rhodococcus erythropolis ATCC 47072, 26 °C
[15] = Rhodococcus rhodochrous DAP 96622 ATCC 55898, 26 °C
[16] = Rhodococcus sp. DAP 96253 ATCC 55899, 30 °C

## NC(=O)C[C@H](N)C(=O)O [Asparagine, asparagine]
Nitrile hydratase; Rhodococcus sp. DAP 96253, YEMEA, 10 ppm cobalt, 7.5 g/L urea
  Nitrile Hydratase Activity: 170.50 Units/mg cdw
Nitrile hydratase
  nitrile hydratase induction compared with acrylonitrile: exceeds the ability of acrylonitrile to induce such activity
Amidase [1]; Rhodococcus sp. DAP 96253, YEMEA, 10 ppm cobalt, 7.5 g/L urea, inducer 1000 ppm
  Amidase Activity: 13.24 Units/mg cdw
Amidase [1]; relative to acrylonitrile as inducer, 1000 ppm
  amidase activity greater than that resulting from acrylonitrile: approximately 74%
[2]
  Growth: +
[3]
  Growth: +
[4]
  Growth: +
[5]
  Growth: ++
[6]
  Growth: ++++
[7]
  Growth: ++++
Amidase [8]; [11]
  Amidase Level Based on Growth Medium Supplementation: 0 Units/mg cdw
Amidase [8]; [12]
  Amidase Level Based on Growth Medium Supplementation: 14 Units/mg cdw
Amidase [8]; [13]
  Amidase Level Based on Growth Medium Supplementation: 0 Units/mg cdw
Amidase [8]; [14]
  Amidase Level Based on Growth Medium Supplementation: 9 Units/mg cdw
Amidase [8]; [15]
  Amidase Level Based on Growth Medium Supplementation: 10 Units/mg cdw
Amidase [8]; [16]
  Amidase Level Based on Growth Medium Supplementation: 13 Units/mg cdw
Asparaginase I [9]; [11]
  Asparaginase I Level Based on Growth Medium Supplementation: 19.1 Units/mg cdw
Asparaginase I [9]; [12]
  Asparaginase I Level Based on Growth Medium Supplementation: 0 Units/mg cdw
Asparaginase I [9]; [13]
  Asparaginase I Level Based on Growth Medium Supplementation: 18.4 Units/mg cdw
Asparaginase I [9]; [14]
  Asparaginase I Level Based on Growth Medium Supplementation: 1 Units/mg cdw
Asparaginase I [9]; [15]
  Asparaginase I Level Based on Growth Medium Supplementation: 12.3 Units/mg cdw
Asparaginase I [9]; [16]
  Asparaginase I Level Based on Growth Medium Supplementation: 12.5 Units/mg cdw
Asparaginase I [10]; YEMEA - Glucose, with cobalt
  Asparaginase I levels, YEMEA - Glucose With Cobalt: 6.5 units/mg cell dry weight
Asparaginase I [10]; YEMEA - Glucose, without cobalt
  Asparaginase I levels, YEMEA - Glucose Without Cobalt: 5.3 units/mg cell dry weight
Asparaginase I [10]; YEMEA - Maltose, with cobalt
  Asparaginase I levels, YEMEA - Maltose With Cobalt: 24.6 units/mg cell dry weight
Asparaginase I [10]; YEMEA - Maltose, without cobalt
  Asparaginase I levels, YEMEA - Maltose Without Cobalt: 8.7 units/mg cell dry weight
